Measured values reported in PubChem BioAssay (NCI).
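Test compounds were applied to cells in 96-well plates for 48 hours at 5 doses. The concentration for 50% growth inhibition is given as GI50. TGI denotes the concentration required for complete inhibition of growth.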

How the values were obtained:
Assay in all cases: NCI-60 cell line screen, 48 h
CCRF-CEM leukemia = system: CCRF-CEM leukemia
HCT-15 colon = system: HCT-15 colon
UACC-257 melanoma = system: UACC-257 melanoma
NCI-H460 lung = system: NCI-H460 lung
MCF7 breast = system: MCF7 breast
NCI/ADR-RES ovarian = system: NCI/ADR-RES ovarian
HL-60(TB) leukemia = system: HL-60(TB) leukemia
MALME-3M melanoma = system: MALME-3M melanoma
SNB-19 CNS = system: SNB-19 CNS
RPMI-8226 leukemia = system: RPMI-8226 leukemia
SF-539 CNS = system: SF-539 CNS
SR leukemia = system: SR leukemia
SF-295 CNS = system: SF-295 CNS
SK-MEL-28 melanoma = system: SK-MEL-28 melanoma
HCC-2998 colon = system: HCC-2998 colon
T-47D breast = system: T-47D breast
HOP-92 NSCLC = system: HOP-92 NSCLC
SK-MEL-5 melanoma = system: SK-MEL-5 melanoma
NCI-H522 lung = system: NCI-H522 lung
COLO 205 colon = system: COLO 205 colon
MDA-MB-231 breast = system: MDA-MB-231 breast
SNB-75 CNS = system: SNB-75 CNS
TK-10 renal = system: TK-10 renal
MOLT-4 leukemia = system: MOLT-4 leukemia
OVCAR-3 ovarian = system: OVCAR-3 ovarian
NCI-H23 lung = system: NCI-H23 lung
NCI-H226 lung = system: NCI-H226 lung
786-0 renal = system: 786-0 renal
SN12C renal = system: SN12C renal
M14 melanoma = system: M14 melanoma
OVCAR-8 ovarian = system: OVCAR-8 ovarian
HOP-62 NSCLC = system: HOP-62 NSCLC
RXF 393 renal = system: RXF 393 renal
UACC-62 melanoma = system: UACC-62 melanoma
PC-3 prostate = system: PC-3 prostate
DU-145 prostate = system: DU-145 prostate
OVCAR-4 ovarian = system: OVCAR-4 ovarian
K-562 leukemia = system: K-562 leukemia
CAKI-1 renal = system: CAKI-1 renal
HCT-116 colon = system: HCT-116 colon
U251 CNS = system: U251 CNS
MDA-MB-435 = system: MDA-MB-435
ACHN renal = system: ACHN renal
HT29 colon = system: HT29 colon
EKVX NSCLC = system: EKVX NSCLC
A549 NSCLC = system: A549 NSCLC
BT-549 breast = system: BT-549 breast
SW-620 colon = system: SW-620 colon
UO-31 renal = system: UO-31 renal
SK-OV-3 ovarian = system: SK-OV-3 ovarian
LOX IMVI melanoma = system: LOX IMVI melanoma
KM12 colon = system: KM12 colon
IGROV1 ovarian = system: IGROV1 ovarian
SF-268 CNS = system: SF-268 CNS
OVCAR-5 ovarian = system: OVCAR-5 ovarian

SMILES: CC1c2ccccc2N=C2SC(=S)N3CCN=C3N21 (stereo not given)
- GI50 (CCRF-CEM leukemia): > 100 µM
- TGI (CCRF-CEM leukemia): > 100 µM
- GI50 (HCT-15 colon): > 100 µM
- TGI (HCT-15 colon): > 100 µM
- GI50 (UACC-257 melanoma): > 100 µM
- TGI (UACC-257 melanoma): > 100 µM
- GI50 (NCI-H460 lung): > 100 µM
- TGI (NCI-H460 lung): > 100 µM
- GI50 (MCF7 breast): > 100 µM
- TGI (MCF7 breast): > 100 µM
- GI50 (NCI/ADR-RES ovarian): > 100 µM
- TGI (NCI/ADR-RES ovarian): > 100 µM
- GI50 (HL-60(TB) leukemia): > 100 µM
- TGI (HL-60(TB) leukemia): > 100 µM
- GI50 (MALME-3M melanoma): > 100 µM
- TGI (MALME-3M melanoma): > 100 µM
- GI50 (SNB-19 CNS): > 100 µM
- TGI (SNB-19 CNS): > 100 µM
- GI50 (RPMI-8226 leukemia): > 100 µM
- TGI (RPMI-8226 leukemia): > 100 µM
- GI50 (SF-539 CNS): > 100 µM
- TGI (SF-539 CNS): > 100 µM
- GI50 (SR leukemia): > 100 µM
- TGI (SR leukemia): > 100 µM
- GI50 (SF-295 CNS): 97.8 µM
- TGI (SF-295 CNS): > 100 µM
- GI50 (SK-MEL-28 melanoma): > 100 µM
- TGI (SK-MEL-28 melanoma): > 100 µM
- GI50 (HCC-2998 colon): > 100 µM
- TGI (HCC-2998 colon): > 100 µM
- GI50 (T-47D breast): > 100 µM
- TGI (T-47D breast): > 100 µM
- GI50 (HOP-92 NSCLC): > 100 µM
- TGI (HOP-92 NSCLC): > 100 µM
- GI50 (SK-MEL-5 melanoma): 2.25 µM
- TGI (SK-MEL-5 melanoma): 35.8 µM
- GI50 (NCI-H522 lung): > 100 µM
- TGI (NCI-H522 lung): > 100 µM
- GI50 (COLO 205 colon): > 100 µM
- TGI (COLO 205 colon): > 100 µM
- GI50 (MDA-MB-231 breast): > 100 µM
- TGI (MDA-MB-231 breast): > 100 µM
- GI50 (SNB-75 CNS): > 100 µM
- TGI (SNB-75 CNS): > 100 µM
- GI50 (TK-10 renal): > 100 µM
- TGI (TK-10 renal): > 100 µM
- GI50 (MOLT-4 leukemia): > 100 µM
- TGI (MOLT-4 leukemia): > 100 µM
- GI50 (OVCAR-3 ovarian): > 100 µM
- TGI (OVCAR-3 ovarian): > 100 µM
- GI50 (NCI-H23 lung): > 100 µM
- TGI (NCI-H23 lung): > 100 µM
- GI50 (NCI-H226 lung): > 100 µM
- TGI (NCI-H226 lung): > 100 µM
- GI50 (786-0 renal): > 100 µM
- TGI (786-0 renal): > 100 µM
- GI50 (SN12C renal): > 100 µM
- TGI (SN12C renal): > 100 µM
- GI50 (M14 melanoma): > 100 µM
- TGI (M14 melanoma): > 100 µM
- GI50 (OVCAR-8 ovarian): > 100 µM
- TGI (OVCAR-8 ovarian): > 100 µM
- GI50 (HOP-62 NSCLC): > 100 µM
- TGI (HOP-62 NSCLC): > 100 µM
- GI50 (RXF 393 renal): > 100 µM
- TGI (RXF 393 renal): > 100 µM
- GI50 (UACC-62 melanoma): > 100 µM
- TGI (UACC-62 melanoma): > 100 µM
- GI50 (PC-3 prostate): > 100 µM
- TGI (PC-3 prostate): > 100 µM
- GI50 (DU-145 prostate): > 100 µM
- TGI (DU-145 prostate): > 100 µM
- GI50 (OVCAR-4 ovarian): > 100 µM
- TGI (OVCAR-4 ovarian): > 100 µM
- GI50 (K-562 leukemia): > 100 µM
- TGI (K-562 leukemia): > 100 µM
- GI50 (CAKI-1 renal): > 100 µM
- TGI (CAKI-1 renal): > 100 µM
- GI50 (HCT-116 colon): > 100 µM
- TGI (HCT-116 colon): > 100 µM
- GI50 (U251 CNS): > 100 µM
- TGI (U251 CNS): > 100 µM
- GI50 (MDA-MB-435): > 100 µM
- TGI (MDA-MB-435): > 100 µM
- GI50 (ACHN renal): > 100 µM
- TGI (ACHN renal): > 100 µM
- GI50 (HT29 colon): > 100 µM
- TGI (HT29 colon): > 100 µM
- GI50 (EKVX NSCLC): 4.33 µM
- TGI (EKVX NSCLC): > 100 µM
- GI50 (A549 NSCLC): > 100 µM
- TGI (A549 NSCLC): > 100 µM
- GI50 (BT-549 breast): > 100 µM
- TGI (BT-549 breast): > 100 µM
- GI50 (SW-620 colon): > 100 µM
- TGI (SW-620 colon): > 100 µM
- GI50 (UO-31 renal): > 100 µM
- TGI (UO-31 renal): > 100 µM
- GI50 (SK-OV-3 ovarian): > 100 µM
- TGI (SK-OV-3 ovarian): > 100 µM
- GI50 (LOX IMVI melanoma): > 100 µM
- TGI (LOX IMVI melanoma): > 100 µM
- GI50 (KM12 colon): > 100 µM
- TGI (KM12 colon): > 100 µM
- GI50 (IGROV1 ovarian): > 100 µM
- TGI (IGROV1 ovarian): > 100 µM
- GI50 (SF-268 CNS): > 100 µM
- TGI (SF-268 CNS): > 100 µM
- GI50 (OVCAR-5 ovarian): > 100 µM
- TGI (OVCAR-5 ovarian): > 100 µM
